Laboratory results: BindingDB's records for patent US12454530 (Chiesi Farmaceutici, 2025)

Target: Lysophosphatidic acid receptor 1 (Homo sapiens, UniProt Q92633)
Assay: In Vitro Assay
Protocol: CHO-hLPA1 cell lines are cultured in a humidified incubator at 5% CO2 in DMEM/F-12 (1:1) MIXTURE with 2 mM Glutamax, supplemented with 10% of Foetal Bovine Serum, 1 mM Sodium Pyruvate, 11 mM Hepes and 1× Penicillin/Streptomycin. […] Serial dilutions (1:3 or 1:4, 11 points CRC) of compounds are performed in 100% DMSO at 200× the final concentration. […] The final concentration of DMSO in the assay will be 0.5% in each well. Medium is removed by aspiration and cells are then incubated with 30 μl of a loading solution containing 5 μM of the cytoplasmic Ca2+ indicator Cal-520 AM in Assay Buffer containing 2.5 mM probenecid for 30 min at 37° C. incubator (cell loading). The loaded cell plates are transferred into the FLIPR instrument and calcium responses are monitored during the on-line addition protocols. For testing of compounds, after the cell loading, 10 μl/well of 4× antagonists' solution was added onto the cells. After 30 min pre-incubation (at 37° C.), 10 μl/well of 5× concentrated LPA EC80 was added and Ca2+ mobilization responses was followed during the on-line addition protocol. Intracellular peak fluorescence values subtracted by baseline fluorescence are exported and analysed to determine IC50 values, respectively.

Chain of Lysophosphatidic acid receptor 1 (Q92633 whole entry): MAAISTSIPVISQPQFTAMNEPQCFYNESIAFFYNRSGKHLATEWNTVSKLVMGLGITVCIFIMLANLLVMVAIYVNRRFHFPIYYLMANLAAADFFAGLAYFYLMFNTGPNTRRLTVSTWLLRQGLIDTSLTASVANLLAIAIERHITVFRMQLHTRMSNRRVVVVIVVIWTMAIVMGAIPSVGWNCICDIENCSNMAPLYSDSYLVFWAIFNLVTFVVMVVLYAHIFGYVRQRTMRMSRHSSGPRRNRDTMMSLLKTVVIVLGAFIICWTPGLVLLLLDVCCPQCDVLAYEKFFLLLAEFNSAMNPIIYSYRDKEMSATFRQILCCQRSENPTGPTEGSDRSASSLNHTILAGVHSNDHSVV

IC50: < 50 nM
Structure (SMILES): Cc1ccccc1[C@@H](C)OC(=O)Nc1c(C)noc1-c1ccc(NC(=O)[C@H]2CCCC[C@@H]2C(=O)O)c(C)n1 [US12454530, Example 32]
